The record followed here is ChEMBL document CHEMBL1143536, “QSAR analyses of conformationally restricted 1,5-diaryl pyrazoles as selective COX-2 inhibitors: application of connection table representation of ligands” (Bioorg Med Chem Lett, 2005).

A short description of experiment [1]: In vitro inhibitory concentration against Prostaglandin G/H synthase 1 (COX-1).
The nature of experiment [2]: Ratio of inhibitory concentration against prostaglandin G/H synthase 1 to that of prostaglandin G/H synthase 2.
Experiment [3] concerns the target T1, Prostaglandin G/H synthase 2 (Homo sapiens, UniProt P35354).
T1 sequence (P35354 whole entry): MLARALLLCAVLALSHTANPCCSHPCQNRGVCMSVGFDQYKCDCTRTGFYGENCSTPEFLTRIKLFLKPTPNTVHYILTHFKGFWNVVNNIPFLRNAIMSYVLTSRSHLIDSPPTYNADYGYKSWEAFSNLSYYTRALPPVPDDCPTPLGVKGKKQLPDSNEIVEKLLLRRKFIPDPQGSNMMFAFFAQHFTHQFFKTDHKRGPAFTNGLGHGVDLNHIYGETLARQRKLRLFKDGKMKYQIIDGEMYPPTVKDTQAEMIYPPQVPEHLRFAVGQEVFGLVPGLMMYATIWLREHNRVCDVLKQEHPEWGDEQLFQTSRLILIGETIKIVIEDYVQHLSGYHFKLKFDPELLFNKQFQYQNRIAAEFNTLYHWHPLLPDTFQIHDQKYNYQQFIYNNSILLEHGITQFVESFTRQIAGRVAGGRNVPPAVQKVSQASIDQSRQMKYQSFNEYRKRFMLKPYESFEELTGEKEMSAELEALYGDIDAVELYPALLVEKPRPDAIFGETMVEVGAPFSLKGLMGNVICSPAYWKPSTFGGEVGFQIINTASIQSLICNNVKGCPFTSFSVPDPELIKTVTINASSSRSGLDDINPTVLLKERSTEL
Briefly: In vitro inhibitory concentration against Prostaglandin G/H synthase 2 (COX-2).

Take `NS(=O)(=O)c1ccc(-n2nc(C(F)(F)F)c3c2-c2ccccc2OC3)cc1`: the “Log IC50” value in experiment [1] is on record as -5.15. Moreover, the Ratio in experiment [2] was 0.72.

In experiment [3], `COc1ccc2c(c1F)C[S+]([O-])c1c(C(F)(F)F)nn(-c3ccc(S(N)(=O)=O)cc3)c1-2` (stereo not drawn) had an IC50 of 1.51 µM.

As for `NS(=O)(=O)c1ccc(-n2nc(C(F)(F)F)c3c2-c2ccccc2CS3)cc1`, in experiment [1], the “Log IC50” value is reported as -6.4. Further, in experiment [2], the Ratio was determined as 1.3.

In the case of `Cc1ccc2c(c1F)CSc1c(C(F)(F)F)nn(-c3ccc(S(N)(=O)=O)cc3)c1-2`, the midpoint of inhibition in experiment [3], the IC50, lay at 0.0158 µM. Moreover, the “Log IC50” value in experiment [1] is given as -4.95. Besides, the Ratio in experiment [2] came to 2.84.

On to `NS(=O)(=O)c1ccc(-n2nc(C(F)(F)F)c3c2-c2ccc(F)cc2CS3)cc1`, for which, in experiment [1], the “Log IC50” value is listed as -6.57. The Ratio in experiment [2] was found to be 0.84.

For `NS(=O)(=O)c1ccc(-n2nc(C(F)(F)F)c3c2-c2ccccc2SC3)cc1`, the “Log IC50” value in experiment [1] was -5.01.

Regarding `COc1ccc2c(c1F)CSc1c(C(F)(F)F)nn(-c3ccc(S(N)(=O)=O)cc3)c1-2`, the IC50 in experiment [3] is 0.00891 µM. For the same compound, the “Log IC50” value in experiment [1] is listed as -5.56. Further, the Ratio in experiment [2] came to 2.48.

On to `COc1ccc2c(c1F)CSc1c(C(F)F)nn(-c3ccc(S(N)(=O)=O)cc3)c1-2`, for which the IC50 in experiment [3] is 0.0324 µM.

In turn, `NS(=O)(=O)c1ccc(-n2nc(C(F)(F)F)c3c2-c2cccc(F)c2CS3)cc1` gave an IC50 in experiment [3] of 0.0209 µM. For the same compound, in experiment [1], the “Log IC50” value is -5.2. In addition, the Ratio in experiment [2] was 2.47.

As for `N#Cc1nn(-c2ccc(S(N)(=O)=O)cc2)c2c1SCc1cc(F)ccc1-2`, the “Log IC50” value in experiment [1] is listed as -6.12. Moreover, the Ratio in experiment [2] came out at 0.7.

For the compound `Cc1ccc2c(c1)CSc1c(C(F)(F)F)nn(-c3ccc(S(N)(=O)=O)cc3)c1-2`, the “Log IC50” value in experiment [1] is listed as -6.1. In experiment [2], the Ratio was 1.56.

`NS(=O)(=O)c1ccc(-n2nc(C(F)(F)F)c3c2-c2ccc(F)c(F)c2CS3)cc1`: half-maximal inhibition in experiment [3] (IC50) required 0.00603 µM. The “Log IC50” value in experiment [1] is -5.57. For the same compound, in experiment [2], the Ratio turned out to be 2.58.

With `COc1ccc2c(c1F)CSc1c(C(F)(F)F)nn(-c3ccc(S(C)(=O)=O)cc3)c1-2`, half-maximal inhibition in experiment [3] (IC50) was put at 0.0759 µM.

As to `COc1ccc2c(c1)CSc1c(C(F)(F)F)nn(-c3ccc(S(N)(=O)=O)cc3)c1-2`, the “Log IC50” value in experiment [1] is -6.52. The Ratio in experiment [2] was determined as 1.36.

Usually IC50 stands for the concentration that gives 50% inhibition.
